“Also recorded” adds a separate entry of the source. Marks after values point to notes of the source that are not given here.
Key:
[1] = test system: T cell tropic NL4.3 strain of HIV-1; assay: Antiviral efficacy: MT-2 cells infected with HIV-1 NL4.3, cell viability by MTS after 6 days (IC50); assay type: cell-based; conditions: for EC50: MT-2 cells infected with HIV-1 NL4.3, 6 days, MTS viability; for anti-HIV activity compared with SPL7013: MT-2 cells, HIV-1 NL4.3, comparison with homogenous surface dendrimer SPL7013 (Table 24)
Experimental: MT-2 cells are infected with the T cell tropic NL4.3 strain of HIV-1 in the presence of 6, 5-fold serial concentrations of compound in triplicate wells of a 96 well plate. In the same plate, cells are exposed to the same drug concentrations in the absence of virus to determine the cytotoxic concentrations of the compound. […] Antimicrob Agents Chemother.
After 6 days incubation at 37° C. in a CO2 incubator, cell viability of both virus-infected and uninfected cells is determined by incubating cells for 3-4 hours with 3-(4,5-dimethylthiazol-2-yl)-5-(3-carboxymethoxyphenyl)-2-(4-sulfophenyl)-2H-tetrazolium (MTS) according to manufacturer's instructions (CellTiter 96 AQueous One Solution Cell Proliferation assay (Promega, Madison Wis.)).

[2] = Plasma clearance studies for radiolabelled (tritiated) macromolecules: plasma, urine, faeces and organ tritium after 5 mg/kg intravenous dose; assay type: in vivo; conditions: rats; for plasma T½: tritiated macromolecule; for % of 3H dose excreted in total urine: urine collected 0-30 hr
Experimental: Tritiated poly-lysine macromolecules were dissolved in phosphate buffered saline (PBS), pH 7.4) and frozen until required. Rats were intravenously administered 5 mg/kg of macromolecule via an indwelling cannula (implanted in the jugular vein) over 2 min.
Immediately following dosing, a blood sample (t=0) was collected via an indwelling carotid artery cannula and placed in a heparinised eppendorf tube.
Blood samples were then collected at predetermined intervals for the following 30 hr, and the plasma separated. In addition, urine and faeces were collected at 0-8 hr, 8-24 hr and 24-30 hr. At sacrifice (30 hr after the intravenous dose) the major organs (liver, kidneys, spleen, pancreas, heart, lung and brain) were collected and weighed. The tritium content of plasma, urine, faeces and the various tissue samples were determined using validated scintillation assays.

[3] = test system: T cell tropic NL4.3 strain of HIV-1; conditions: positive control of the assay; Dezzutti et al. 2004; cited from earlier work

Substance	EC50 [1]	plasma T½ [2]	further results
BHALys[GlyLys]2[Lys]4[Boc]6[ε,ε-COCH2O-3,6-Naph (SO3Na)2]2 [Example 49]	2.2 µg/mL	–	–
BHALys[GlyLys]2[Lys]4[COCH2O-3,6-Naph(SO3Na)2]6 [ε,ε-CBz]2 [Example 48]	0.13 µg/mL	–	anti-HIV activity compared with SPL7013 [1]: considerably more active than SPL7013; also recorded: significantly more active than SPL7013
BHALys[GlyLys]2[Lys]4[α,α-Boc]2[ε,α-COCH2O-3,6-Naph(SO3Na)2]2[ε,ε-COCH2O-3,6-Naph(SO3Na)2]2 [Example 42]	10.6 µg/mL	–	–
BHALys[GlyLys]2[Lys]4[α,α-COCH2O-3,6-Naph(SO3Na)2]2[α,ε-COCH2O-3,6-Naph(SO3Na)2]2[ε,α-COC5H12]2[ε,ε-COC5H12]2 [Example 43]	0.24 µg/mL	–	–
BHALys[Lys]2[GlyLys]4[Lys]8[α,α-Boc]4[α,ε-Boc]4[ε,α-COCH2O-3,6-Naph(SO3Na)2]4 [ε,ε-COCH2O-3,6-Naph(SO3Na)2]4 [Example 44]	0.33 µg/mL	–	–
BHALys[Lys]2[GlyLys]4[Lys]8[α,α-COCH2O-3,6-Naph(SO3Na)2]4[α,εCOCH2O-3,6-Naph(SO3Na)2]4[ε,α-COC5H12]4[ε,ε-COC5H12]4 [Example 45]	0.37 µg/mL	–	–
BHALys[Lys]2[α,ε-Lys][CBz]2[Lys]3 [COCH2O-3,6-Naph(SO3Na)2]6 [Example 46]	0.14 µg/mL	–	anti-HIV activity compared with SPL7013 [1]: considerably more active than SPL7013; also recorded: significantly more active than SPL7013
BHALys[Lys]2[α,ε-Lys][COCH2O-3,6-Naph(SO3Na)2]2[Lys]3 [Boc]6 [Example 47]	>50 µg/mL	–	–
BHALys[Lys]4[Su(NPN)2]8[γ-CO-MTX-α-OtBu]8[COPEG24]8 [Example 60]	–	3.9 ± 0.1^a h	–
BHALys[Lys]4[α-CO-4-PhSO3Na]4[ε-COC5H12]4 [Example 31]	344 µg/mL	–	–
BHALys[Lys]4[α-COC5H12]4[ε-COCH2O-3,6-Naph(SO3Na)2]4 [Example 30]	58.3 µg/mL	–	–
BHALys[Lys]4[α-COCH2O-3,6-Naph(SO3Na)2]4[ε-COC5H12]4 [Example 29]	23.8 µg/mL	–	–
BHALys[Lys]8[PEG2KD]16 [Example 54]	–	23.90 ± 2.56 h	% of 3H dose excreted in total urine [2]: 26.0 ± 4.6%
BHALys[Lys]8[PEG200]16 [Example 51]	–	0.25 ± 0.04 h	% of 3H dose excreted in total urine [2]: 82.2 ± 6.4%
BHALys[Lys]8[Su(NPN)2]16 [γ-CO-MTX-α-OtBu]16 [COPEG12]16 [Example 58]	–	9.0 ± 0.2^a h	–
BHALys[Lys]8[Su(NPN)2]16 [γ-CO-MTX-α-OtBu]16 [COPEG24]16 [Example 61]	–	21.0 ± 1.7 h	–
BHALys[Lys]8[Su(NPN)2]16 [γ-CO-MTX-α-OtBu]16 [COPEG2300]16 [Example 63]	–	34.1 ± 1.1 h	–

Substance	EC50 [1]	plasma T½ [2]	further results
BHALys[Lys]8[α-CO2PEG3]8[ε-CO-3,5-Ph(SO3Na)2]8 [Example 34]	84.5 µg/mL	–	–
BHALys[Lys]8[α-CO2PEG3]8[ε-CO-4-PhSO3Na]8 [Example 35]	>500 µg/mL	–	–
BHALys[Lys]8[α-CO-3,5-Ph(SO3Na)2]8[ε-CBz]8 [Example 37]	2 µg/mL	–	–
BHALys[Lys]8[α-CO-4-Ph(SO3Na)]8[ε-CBz]8 [Example 38]	2.2 µg/mL	–	–
BHALys[Lys]8[α-COCH2O-3,6-Naph(SO3Na)2]8[ε-CBz]8 [Example 36]	3.2 µg/mL	–	–
BHALys[Lys]16 [PEG2KD]32 [Example 55]	–	75.35 ± 9.3 h	% of 3H dose excreted in total urine [2]: 3.1 ± 1.9%
BHALys[Lys]16 [PEG200]32 [Example 52]	–	0.72 ± 0.03 h	% of 3H dose excreted in total urine [2]: 80.4 ± 13.6%
BHALys[Lys]16 [PEG570]32 [Example 53]	–	9.45 ± 0.42 h	% of 3H dose excreted in total urine [2]: 42.9 ± 2.7%
BHALys[Lys]16 [Su(NPN)2]32 [γ-CO-MTX-α-OtBu]32 [COPEG12]32 [Example 59]	–	23.7 ± 5.0 h	–
BHALys[Lys]16 [Su(NPN)2]32 [γ-CO-MTX-α-OtBu]32 [COPEG24]32 [Example 62]	–	51.4 ± 2.7 h	–
BHALys[Lys]16 [α-CO-3,5-Ph(SO3Na)2]16[ε-CBz]16 [Example 40]	3.2 µg/mL	–	–
BHALys[Lys]16 [α-CO-4-Ph(SO3Na)]16 [ε-CBz]16 [Example 41]	4.2 µg/mL	–	–
BHALys[Lys]16 [α-COCH2O-3,6-Naph(SO3Na)2]16 [ε-CBz]16 [Example 39]	2.4 µg/mL	–	–
BHALys[Lys]16[COCH2O-3,6-Naph(SO3Na)2]32 [SPL7013, reference compound]	1.5 µg/mL	–	HIV replication [3]: inhibits HIV replication
DAH [Lys]8[α-CO-3,5-Ph(SO3Na)2]8[ε-COC5H12]8 [Example 32]	5.8 µg/mL	–	–
DAH [Lys]8[α-COCH2O-3,6-Naph(SO3Na)2]8[ε-COC5H12]8 [Example 33]	0.71 µg/mL	–	–

Reference: patent publication US8258259B2, “Macromolecular compounds having controlled stoichiometry” (Starpharma Pty Limited, priority 2005, dated 2012)
